Results on 13 compounds are retold here after US20150141411A1, “SUBSTITUTED 3,4-DIHYDRO-2H-PYRIDO[1,2-A]PYRAZINE-1,6-DIONE DERIVATIVES USEFUL FOR THE TREATMENT OF (INTER ALIA) ALZHEIMER'S DISEASE” (Janssen Pharmaceuticals, Inc., priority 2012, published 2015).

The target of experiment [1] is T1, γ-secretase (Homo sapiens, UniProt P49768).
T1 construct: endogenous in cells; host or cells: SKNBE2 human neuroblastoma cells (carrying hAPP 695 wild type as substrate)
The experiment can be described thus: Screening for γ-secretase-modulating activity: Aβtotal in supernatant of SKNBE2 cells carrying hAPP 695 wild type (Alphalisa). In kind it is cell-based. The settings on record: SKNBE2 human neuroblastoma cells carrying hAPP 695 wild type, overnight incubation, Aβtotal in cell supernatant. The procedure, abridged: (§1)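 SKNBE2 neuroblastoma cells expressing wild-type hAPP 695 plated at 10^4 cells/well in Ultraculture with test compound, incubated overnight at 37° C. Aβ42 (C-terminal/N-terminal antibody pair) and Aβtotal (N-terminal/4G8 pair) in supernatant quantified by AlphaLISA. IC50 from 4-parameter fit of percent of compound-free control.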
For orientation: Alpha assays give light when donor and acceptor beads are brought close together.

Experiment [2] addresses T1, γ-secretase. Kind of experiment: Screening for γ-secretase-modulating activity: Aβ42 in supernatant of SKNBE2 cells carrying hAPP 695 wild type (Alphalisa). Format: cell-based. The settings on record: SKNBE2 human neuroblastoma cells carrying hAPP 695 wild type, overnight incubation, Aβ42 in cell supernatant. The procedure, abridged:
as §1

Each structure is given as a SMILES string. Where only a bound is given, the exact number is not on record here.

For `Cc1cn(-c2ccc3n(c2=O)C[C@@H](C)N(Cc2ccc(Cl)c(C(F)(F)F)c2)C3=O)cn1` [compound 62], the IC50 – broadly, the concentration that gives 50% inhibition – against γ-secretase [1] is greater than 10000 nM; against γ-secretase [2], 130 nM.

`Cc1cn(-c2ccc3n(c2=O)C[C@@H](C)N(Cc2cc(Cl)cc(C(F)(F)F)c2)C3=O)cn1` [compound 63]: the values for the IC50 at γ-secretase [1] and against γ-secretase [2] were greater than 10000 nM and 190 nM, respectively.

Take `Cc1cn(-c2ccc3n(c2=O)C[C@@H](C)N(Cc2ccc(C(F)(F)F)c(C(F)(F)F)c2)C3=O)cn1` [compound 46]: the concentration for half-maximal inhibition (IC50) was greater than 10000 nM against γ-secretase [1] and 140 nM at γ-secretase [2].

`Cc1cn(-c2ccc3n(c2=O)CCN(C(C)c2cccc(Cl)c2Cl)C3=O)cn1` (single isomer, unassigned) [10a]: the 50% inhibitory concentration (IC50) against γ-secretase [1] was greater than 10000 nM; against γ-secretase [2], 140 nM.

Consider `Cc1cn(-c2ccc3n(c2=O)CCN(Cc2ccc(C)c(N4CCCCC4)c2)C3=O)cn1` [compound 99], for which the IC50 against γ-secretase [1] was greater than 10000 nM; against γ-secretase [2], 170 nM.

Regarding `Cc1cn(-c2ccc3n(c2=O)CCN(Cc2ccc(Cl)c(C(F)(F)F)c2)C3=O)cn1` [compound 65], the concentration for half-maximal inhibition (IC50) at γ-secretase [1] is greater than 10000 nM; against γ-secretase [2], 370 nM.

For `Cc1cn(-c2ccc3n(c2=O)C[C@@H](C)N(Cc2cccc(C(C)(C)C)c2)C3=O)cn1` [compound 23], the results for the IC50 at γ-secretase [1] and at γ-secretase [2] were greater than 10000 nM and 140 nM, respectively.

As for `Cc1cn(-c2ccc3n(c2=O)C[C@@H](C)N(Cc2ccc(Cl)c(Cl)c2)C3=O)cn1` [compound 2], the results for the half-inhibitory concentration (IC50) at γ-secretase [1] and at γ-secretase [2] were greater than 10000 nM and 170 nM, respectively.

For the compound `Cc1cc(CN2C(=O)c3ccc(-n4cnc(C)c4)c(=O)n3C[C@H]2C)cc(C(F)(F)F)c1` [compound 59], the IC50 against γ-secretase [1] is greater than 10000 nM; at γ-secretase [2], 180 nM.

With `Cc1cn(-c2ccc3n(c2=O)CCN(Cc2cccc(-c4ccccc4)c2)C3=O)cn1` [compound 5], the IC50 at γ-secretase [1] was greater than 10000 nM; at γ-secretase [2], 80 nM.

With `Cc1cn(-c2ccc3n(c2=O)CCN(Cc2ccccc2C)C3=O)cn1` [compound 22], the IC50 on γ-secretase [1] was greater than 10000 nM; against γ-secretase [2], 2570 nM.

As to `CCC1Cn2c(ccc(-n3cnc(C)c3)c2=O)C(=O)N1Cc1cc(C(F)(F)F)cc(C(F)(F)F)c1.Cl` (centres unmarked) [compound 1], the IC50 against γ-secretase [1] was greater than 10000 nM; on γ-secretase [2], 110 nM.

In the case of `CCc1cn(-c2ccc3n(c2=O)CC(C)N(Cc2cc(C(F)(F)F)cc(C(F)(F)F)c2)C3=O)cn1.Cl` (centres unmarked) [compound 7], the IC50 at γ-secretase [1] was greater than 10000 nM; against γ-secretase [2], 140 nM.
